Article PMC8551653, “Bisphenol A derivatives act as novel coactivator-binding inhibitors for estrogen receptor β” (The Journal of Biological Chemistry, 2021)

molecular target: T1, ERβ (Homo sapiens, UniProt Q92731); assay: Radioligand competitive binding assay with [3H]E2 for ERβ (GST-ERβ-LBD); design: made in house; host or cells: Escherichia coli BL21α; details: not given
Description: Human ERβ cDNA was obtained from OriGene Technologies. The cDNA of ERβ-LBD was amplified using PCR and subcloned into a pGEX-6p-1 expression vector. The expression of GST-fused ERβ-LBD was induced by 1 mM IPTG in Escherichia coli BL21α at 16 °C for overnight. The resulting crude protein was affinity-purified using Glutathione-Sepharose 4B (Cytiva), followed by gel filtration using a Sephadex G-10 column (Cytiva).
Target sequence in this assay (Q92731 263-530): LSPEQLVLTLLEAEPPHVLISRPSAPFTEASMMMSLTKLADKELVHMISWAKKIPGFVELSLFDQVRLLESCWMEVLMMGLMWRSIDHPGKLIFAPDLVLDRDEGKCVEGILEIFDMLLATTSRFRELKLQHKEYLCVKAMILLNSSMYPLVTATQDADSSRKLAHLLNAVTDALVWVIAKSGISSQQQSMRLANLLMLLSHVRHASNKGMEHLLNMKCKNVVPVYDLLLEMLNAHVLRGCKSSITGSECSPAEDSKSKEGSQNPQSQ

Row | Structure (SMILES) | IC50 [nM]
1 | CC(C)(c1ccc(O)cc1)c1ccc(C(C)(c2ccc(O)cc2)c2ccc(O)cc2)cc1 [Compound 12, α, α, α′-Tris(4-hydroxyphenyl)-1-ethyl-4-isopropylbenzene] | 212 ± 36
2 | CC(C)(c1ccc(O)cc1)c1ccc(C(C)(C)c2ccc(O)cc2)cc1 [Compound 16, 4,4'-(1,4-phenylenebis(propane-2,2-diyl))diphenol] | 607 ± 28
3 | Oc1ccc(C(=C(Cl)Cl)c2ccc(O)cc2)cc1 [Compound 1, 4,4'-(2,2-dichloroethene-1,1-diyl)diphenol] | 2.99 ± 1
4 | Nc1ccc(Oc2ccc(C(c3ccc(Oc4ccc(N)cc4)cc3)(C(F)(F)F)C(F)(F)F)cc2)cc1 [Compound 17, 2,2-Bis[4-(4-aminophenoxy)phenyl]hexafluoropropane] | 609 ± 81
5 | Oc1ccc(C2(c3ccc(O)cc3)c3ccccc3-c3ccccc32)cc1 [Compound 14, 9,9-Bis(4-hydroxyphenyl)fluorene] | 325 ± 60
6 | Oc1ccc(C2(c3ccc(O)cc3)CCCCC2)cc1 [Compound 5, 4,4'-(cyclohexane-1,1-diyl)diphenol] | 21.6 ± 1.9
7 | CCC(C)(c1ccc(O)cc1)c1ccc(O)cc1 [Compound 8, 4,4'-(butane-2,2-diyl)diphenol] | 79.8 ± 12.6
8 | CC(C)(c1ccc(O)cc1)c1cccc(C(C)(C)c2ccc(O)cc2)c1 [Compound 10, 4,4'-(1,3-phenylenebis(propane-2,2-diyl))diphenol] | 148 ± 80
9 | Cc1cc(C2(c3ccc(O)c(C)c3)c3ccccc3-c3ccccc32)ccc1O [Compound 15, 9,9-Bis(4-hydroxy-3-methylphenyl)fluorene] | 405 ± 108

molecular target: T1, ERβ; assay: Luciferase reporter gene assay in HeLa cells, antagonistic activity against 10 nM E2; format: cell-based; design: expressed in transfected cells; host or cells: HeLa; details: HeLa cells; in the presence of 10 nM E2; 0.1, 1, 10 µM tested
Description: (§1) HeLa cells were maintained in Eagle's minimum essential medium (Nissui Pharmaceutical Co, Ltd) supplemented with DCC-treated fetal bovine serum (10%, v/v) at 37 °C under 5% CO2. […] After a 24-h incubation, luciferase activity was measured using the ONE-Glo Luciferase Assay System (Promega Co) on an EnSpire multimode plate reader (PerkinElmer, Inc).
Target sequence in this assay (Q92731 whole entry, the tested form may be a part): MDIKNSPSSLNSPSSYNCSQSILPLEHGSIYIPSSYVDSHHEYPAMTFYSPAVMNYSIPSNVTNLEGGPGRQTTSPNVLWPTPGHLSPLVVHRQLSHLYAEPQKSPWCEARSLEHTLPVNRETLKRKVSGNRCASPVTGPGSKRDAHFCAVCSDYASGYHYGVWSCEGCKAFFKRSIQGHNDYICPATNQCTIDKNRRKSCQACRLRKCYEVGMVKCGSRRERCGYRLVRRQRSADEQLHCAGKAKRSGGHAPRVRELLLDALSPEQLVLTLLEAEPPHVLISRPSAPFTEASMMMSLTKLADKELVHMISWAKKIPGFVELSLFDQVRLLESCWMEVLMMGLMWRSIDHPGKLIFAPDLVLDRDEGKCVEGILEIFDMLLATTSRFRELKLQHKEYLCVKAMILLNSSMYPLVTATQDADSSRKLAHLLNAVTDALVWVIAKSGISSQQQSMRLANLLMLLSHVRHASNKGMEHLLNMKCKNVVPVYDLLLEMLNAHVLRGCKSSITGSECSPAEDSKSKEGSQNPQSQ

Row | Structure (SMILES) | transcriptional activity (%) at most effective inhibitory concentration, ratio to that of 10 nM E2 [%]
10 | CC(C)(c1ccc(O)cc1)c1ccc(C(C)(c2ccc(O)cc2)c2ccc(O)cc2)cc1 [Compound 12, α, α, α′-Tris(4-hydroxyphenyl)-1-ethyl-4-isopropylbenzene] | 7.7
11 | CC(C)(c1ccc(O)cc1)c1ccc(C(C)(C)c2ccc(O)cc2)cc1 [Compound 16, 4,4'-(1,4-phenylenebis(propane-2,2-diyl))diphenol] | 11.8
12 | Oc1ccc(C(=C(Cl)Cl)c2ccc(O)cc2)cc1 [Compound 1, 4,4'-(2,2-dichloroethene-1,1-diyl)diphenol] | 6.0
13 | Nc1ccc(Oc2ccc(C(c3ccc(Oc4ccc(N)cc4)cc3)(C(F)(F)F)C(F)(F)F)cc2)cc1 [Compound 17, 2,2-Bis[4-(4-aminophenoxy)phenyl]hexafluoropropane] | 99.1
14 | Oc1ccc(C2(c3ccc(O)cc3)c3ccccc3-c3ccccc32)cc1 [Compound 14, 9,9-Bis(4-hydroxyphenyl)fluorene] | 76.9
15 | Oc1ccc(C2(c3ccc(O)cc3)CCCCC2)cc1 [Compound 5, 4,4'-(cyclohexane-1,1-diyl)diphenol] | 19.9
16 | CCC(C)(c1ccc(O)cc1)c1ccc(O)cc1 [Compound 8, 4,4'-(butane-2,2-diyl)diphenol] | 28.9
17 | CC(C)(c1ccc(O)cc1)c1cccc(C(C)(C)c2ccc(O)cc2)c1 [Compound 10, 4,4'-(1,3-phenylenebis(propane-2,2-diyl))diphenol] | 5.4

same assay, conditions: against 10 nM E2-induced ERβ activation; 100 nM, 1 μM, 10 μM

Row | Structure (SMILES) | ERβ antagonist activity (in words)
18 | CC(C)(c1ccc(O)cc1)c1ccc(C(C)(c2ccc(O)cc2)c2ccc(O)cc2)cc1 [Compound 12, α, α, α′-Tris(4-hydroxyphenyl)-1-ethyl-4-isopropylbenzene] | antagonistic activity
19 | CC(C)(c1ccc(O)cc1)c1ccc(C(C)(C)c2ccc(O)cc2)cc1 [Compound 16, 4,4'-(1,4-phenylenebis(propane-2,2-diyl))diphenol] | antagonistic activity
20 | Oc1ccc(C(=C(Cl)Cl)c2ccc(O)cc2)cc1 [Compound 1, 4,4'-(2,2-dichloroethene-1,1-diyl)diphenol] | strongest antagonistic activity
21 | CCC(C)(c1ccc(O)cc1)c1ccc(O)cc1 [Compound 8, 4,4'-(butane-2,2-diyl)diphenol] | weak antagonist activity
22 | CC(C)(c1ccc(O)cc1)c1cccc(C(C)(C)c2ccc(O)cc2)c1 [Compound 10, 4,4'-(1,3-phenylenebis(propane-2,2-diyl))diphenol] | antagonistic activity
23 | Cc1cc(C2(c3ccc(O)c(C)c3)c3ccccc3-c3ccccc32)ccc1O [Compound 15, 9,9-Bis(4-hydroxy-3-methylphenyl)fluorene] | weak antagonist

same assay, conditions: as worded

Row | Structure (SMILES) | inhibition of BPA-induced activation [%]
24 | CCC(C)(c1ccc(O)cc1)c1ccc(O)cc1 [Compound 8, 4,4'-(butane-2,2-diyl)diphenol] | 50

molecular target: T1, ERβ; assay: Competitive binding assay with [3H]4OHT for WT ERβ; design: made in house; host or cells: Escherichia coli BL21α; details: not given
Description: (§2) After successive incubation with 100 μl of 0.4% dextran-coated charcoal (DCC) (Sigma-Aldrich) in PBS (pH 7.4) on ice for 10 min, free radioligands bound to DCC were removed using a vacuum filtration system with a 96-well filtration plate (MultiScreenHTS HV, […], Merck KGaA) for the bound/free separation. The radioactivity of each eluent was measured using a liquid scintillation counter (LS6500; Beckman Coulter) and Clear-sol I (Nacalai Tesque Inc). […] Each compound was dissolved in dimethyl sulfoxide to prepare a 1.0 mM stock solution and further diluted to prepare serial dilutions (10^−12 M to 10^−5 M) in the binding buffer. […] Bound/free separation was performed as described above, and the radioactivity was determined using a MicroBeta microplate counter (PerkinElmer Inc). The IC50 value of each test compound was calculated from the dose–response curves generated via nonlinear regression analysis using Prism software (GraphPad Software Inc).
Target sequence in this assay (Q92731 263-530): as the sequence (Q92731 263-530) above

Row | Structure (SMILES) | IC50 [nM]
25 | Oc1ccc(C(=C(Cl)Cl)c2ccc(O)cc2)cc1 [Compound 1, 4,4'-(2,2-dichloroethene-1,1-diyl)diphenol] | 18.1

same assay, conditions: [3H]4OHT radioligand

Row | Structure (SMILES) | shape of competitive binding curve, WT ERβ
26 | Oc1ccc(C(=C(Cl)Cl)c2ccc(O)cc2)cc1 [Compound 1, 4,4'-(2,2-dichloroethene-1,1-diyl)diphenol] | biphasic dose–response curve

same assay, conditions: read-out: IC50, biphasic curve, low-affinity site; [3H]4OHT radioligand, WT ERβ

Row | Structure (SMILES) | IC50 [nM]
27 | Oc1ccc(C(=C(Cl)Cl)c2ccc(O)cc2)cc1 [Compound 1, 4,4'-(2,2-dichloroethene-1,1-diyl)diphenol] | 2280

molecular target: T1, ERβ; assay: Luciferase reporter gene assay in HeLa cells, agonistic activity; format: cell-based; design: expressed in transfected cells; host or cells: HeLa; details: HeLa cells, ERE luciferase reporter; tested up to 10 µM
Description: as §1
Target sequence in this assay (Q92731 whole entry, the tested form may be a part): as the sequence (Q92731 whole entry, the tested form may be a part) above

Row | Structure (SMILES) | maximum fold induction (agonistic activity on ERβ)
28 | CC(C)(c1ccc(O)cc1)c1ccc(C(C)(c2ccc(O)cc2)c2ccc(O)cc2)cc1 [Compound 12, α, α, α′-Tris(4-hydroxyphenyl)-1-ethyl-4-isopropylbenzene] | 1.02
29 | CC(C)(c1ccc(O)cc1)c1ccc(C(C)(C)c2ccc(O)cc2)cc1 [Compound 16, 4,4'-(1,4-phenylenebis(propane-2,2-diyl))diphenol] | 1.44
30 | Oc1ccc(C(=C(Cl)Cl)c2ccc(O)cc2)cc1 [Compound 1, 4,4'-(2,2-dichloroethene-1,1-diyl)diphenol] | 2.39
31 | Nc1ccc(Oc2ccc(C(c3ccc(Oc4ccc(N)cc4)cc3)(C(F)(F)F)C(F)(F)F)cc2)cc1 [Compound 17, 2,2-Bis[4-(4-aminophenoxy)phenyl]hexafluoropropane] | 1.46
32 | Oc1ccc(C2(c3ccc(O)cc3)c3ccccc3-c3ccccc32)cc1 [Compound 14, 9,9-Bis(4-hydroxyphenyl)fluorene] | 2.47
33 | Oc1ccc(C2(c3ccc(O)cc3)CCCCC2)cc1 [Compound 5, 4,4'-(cyclohexane-1,1-diyl)diphenol] | 3.29
34 | CCC(C)(c1ccc(O)cc1)c1ccc(O)cc1 [Compound 8, 4,4'-(butane-2,2-diyl)diphenol] | 5.13
35 | CC(C)(c1ccc(O)cc1)c1cccc(C(C)(C)c2ccc(O)cc2)c1 [Compound 10, 4,4'-(1,3-phenylenebis(propane-2,2-diyl))diphenol] | 1.12

same assay, conditions: HeLa cells, WT ERβ

Row | Structure (SMILES) | ERβ agonist activity (in words)
36 | CC(C)(c1ccc(O)cc1)c1ccc(C(C)(c2ccc(O)cc2)c2ccc(O)cc2)cc1 [Compound 12, α, α, α′-Tris(4-hydroxyphenyl)-1-ethyl-4-isopropylbenzene] | no agonist activity
37 | CC(C)(c1ccc(O)cc1)c1ccc(C(C)(C)c2ccc(O)cc2)cc1 [Compound 16, 4,4'-(1,4-phenylenebis(propane-2,2-diyl))diphenol] | no agonist activity
38 | Oc1ccc(C(=C(Cl)Cl)c2ccc(O)cc2)cc1 [Compound 1, 4,4'-(2,2-dichloroethene-1,1-diyl)diphenol] | weak transcriptional activity
39 | CC(C)(c1ccc(O)cc1)c1cccc(C(C)(C)c2ccc(O)cc2)c1 [Compound 10, 4,4'-(1,3-phenylenebis(propane-2,2-diyl))diphenol] | no agonist activity

same assay, conditions: at the highest concentration of 10 μM

Row | Structure (SMILES) | transcriptional activity as % of BPA-induced transcriptional activity [%]
40 | CCC(C)(c1ccc(O)cc1)c1ccc(O)cc1 [Compound 8, 4,4'-(butane-2,2-diyl)diphenol] | ~50

system: ERα; assay: not given; design: method as in PMID 31289329; details: competitive binding, [3H] 17β-estradiol as radioligand; mean ± SD; read-out: Binding affinity (IC50, nM) ERα; cited from earlier work

Row | Structure (SMILES) | IC50 [nM]
41 | CC(C)(c1ccc(O)cc1)c1ccc(C(C)(c2ccc(O)cc2)c2ccc(O)cc2)cc1 [Compound 12, α, α, α′-Tris(4-hydroxyphenyl)-1-ethyl-4-isopropylbenzene] | 61.7 ± 10.4
42 | CC(C)(c1ccc(O)cc1)c1ccc(C(C)(C)c2ccc(O)cc2)cc1 [Compound 16, 4,4'-(1,4-phenylenebis(propane-2,2-diyl))diphenol] | 176 ± 35
43 | Oc1ccc(C(=C(Cl)Cl)c2ccc(O)cc2)cc1 [Compound 1, 4,4'-(2,2-dichloroethene-1,1-diyl)diphenol] | 2.81 ± 0.61
44 | Nc1ccc(Oc2ccc(C(c3ccc(Oc4ccc(N)cc4)cc3)(C(F)(F)F)C(F)(F)F)cc2)cc1 [Compound 17, 2,2-Bis[4-(4-aminophenoxy)phenyl]hexafluoropropane] | 1030 ± 375
45 | Oc1ccc(C2(c3ccc(O)cc3)c3ccccc3-c3ccccc32)cc1 [Compound 14, 9,9-Bis(4-hydroxyphenyl)fluorene] | 2230 ± 202
46 | CCC(C)(c1ccc(O)cc1)c1ccc(O)cc1 [Compound 8, 4,4'-(butane-2,2-diyl)diphenol] | 195 ± 44
47 | CC(C)(c1ccc(O)cc1)c1cccc(C(C)(C)c2ccc(O)cc2)c1 [Compound 10, 4,4'-(1,3-phenylenebis(propane-2,2-diyl))diphenol] | 56.8 ± 11.7

molecular target: ERβ(W335A) (Homo sapiens, UniProt Q92731, W335A); assay: Competitive binding assay for ERβ(W335A); design: made in house; host or cells: Escherichia coli BL21α (described for the wild-type LBD); details: not given
Sequence (Q92731 263-530 W335A): as the sequence (Q92731 263-530) above, with W73A counted along it
Description: as §2

Row | Structure (SMILES) | IC50 [nM]
48 | Oc1ccc(C(=C(Cl)Cl)c2ccc(O)cc2)cc1 [Compound 1, 4,4'-(2,2-dichloroethene-1,1-diyl)diphenol] | 691 ± 29

same assay, conditions: Fig. 4B

Row | Structure (SMILES) | shape of competitive binding curve, ERβ(W335A)
49 | Oc1ccc(C(=C(Cl)Cl)c2ccc(O)cc2)cc1 [Compound 1, 4,4'-(2,2-dichloroethene-1,1-diyl)diphenol] | biphasic binding of BPC and BPAF was lost
